Measurements from patent publication US20200165291A1, “NEUROACTIVE STEROIDS, COMPOSITIONS, AND USES THEREOF” (Sage Therapeutics, Inc., priority 2014, published 2020).
Like-named read-outs stand apart in the source and are kept apart here.

Experiments:
[1] = target: [35S]-TBPS binding, rat brain cortical membranes (GABA receptor complex); assay: [35S]-TBPS binding (steroid inhibition of TBPS binding); conditions: in the presence of 5 μM GABA, read-out: 35S-TBPS Radioligand Displacement
Experimental: [35S]-t-Butylbicyclophosphorothionate (TBPS) binding assays using rat brain cortical membranes in the presence of 5 μM GABA has been described (Gee et al, J. Pharmacol. Exp. Ther. 1987, 241, 346-353; Hawkinson et al, Mol. Pharmacol. 1994, 46, 977-985; Lewin, A. H et al., Mol. Pharmacol. 1989, 35, 189-194).
Briefly, cortices are rapidly removed following decapitation of carbon dioxide-anesthetized Sprague-Dawley rats (200-250 g). The cortices are homogenized in 10 volumes of ice-cold 0.32 M sucrose using a glass/teflon homogenizer and centrifuged at 1500×g for 10 min at 4° C. The resultant supernatants are centrifuged at 10,000×g for 20 min at 4° C. to obtain the P2 pellets. The P2 pellets are resuspended in 200 mM NaCl/50 mM Na-K phosphate pH 7.4 buffer and centrifuged at 10,000×g for 10 min at 4° C. This washing procedure is repeated twice and the pellets are resuspended in 10 volumes of buffer. Aliquots (100 μL) of the membrane suspensions are incubated with 3 nM [^35S]-TBPS and 5 μL aliquots of test drug dissolved in dimethyl sulfoxide (DMSO) (final 0.5%) in the presence of 5 μM GABA. The incubation is brought to a final volume of 1.0 mL with buffer. Nonspecific binding is determined in the presence of 2 μM unlabeled TBPS and ranged from 15 to 25%. Following a 90 min incubation at room temp, the assays are terminated by filtration through glass fiber filters (Schleicher and Schuell No. 32) using a cell harvester (Brandel) and rinsed three times with ice-cold buffer. Filter bound radioactivity is measured by liquid scintillation spectrometry. Non-linear curve fitting of the overall data for each drug averaged for each concentration is done using Prism (GraphPad). […] The concentration of test compound producing 50% inhibition (IC50) of specific binding and the maximal extent of inhibition (Imax) are determined for the individual experiments with the same model used for the overall data and then the means±SEM.s of the individual experiments are calculated.
Various compounds are or can be screened to determine their potential as modulators of [^35S]-TBPS binding in vitro. These assays are or can be performed in accordance with the above discussed procedures.

[2] = target: T1, recombinant α1β2γ2 GABAA receptors (Homo sapiens, UniProt P14867+P47870); assay: Patch clamp electrophysiology, QPatch, LTK cells; assay type: cell-based; conditions: 10 μM test article, GABA EC20 = 2 μM, read-out: GABA (α1β2γ2) Qpatch in Ltk, % efficacy at 10 μM
T1 construct: expressed in transfected cells
T1 sequence (P14867 28-456): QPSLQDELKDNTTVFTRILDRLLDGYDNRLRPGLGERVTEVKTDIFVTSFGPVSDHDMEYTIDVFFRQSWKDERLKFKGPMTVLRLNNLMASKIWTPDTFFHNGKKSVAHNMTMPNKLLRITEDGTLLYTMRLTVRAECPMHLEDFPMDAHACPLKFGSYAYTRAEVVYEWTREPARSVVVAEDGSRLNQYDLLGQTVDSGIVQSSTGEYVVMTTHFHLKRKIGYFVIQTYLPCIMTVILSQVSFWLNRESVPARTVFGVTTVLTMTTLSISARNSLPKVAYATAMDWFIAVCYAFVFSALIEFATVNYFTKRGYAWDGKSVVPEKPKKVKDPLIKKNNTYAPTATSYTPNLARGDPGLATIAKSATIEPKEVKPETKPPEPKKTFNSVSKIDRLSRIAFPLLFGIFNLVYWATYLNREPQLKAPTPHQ
T1 sequence (P47870 25-512 limits assumed): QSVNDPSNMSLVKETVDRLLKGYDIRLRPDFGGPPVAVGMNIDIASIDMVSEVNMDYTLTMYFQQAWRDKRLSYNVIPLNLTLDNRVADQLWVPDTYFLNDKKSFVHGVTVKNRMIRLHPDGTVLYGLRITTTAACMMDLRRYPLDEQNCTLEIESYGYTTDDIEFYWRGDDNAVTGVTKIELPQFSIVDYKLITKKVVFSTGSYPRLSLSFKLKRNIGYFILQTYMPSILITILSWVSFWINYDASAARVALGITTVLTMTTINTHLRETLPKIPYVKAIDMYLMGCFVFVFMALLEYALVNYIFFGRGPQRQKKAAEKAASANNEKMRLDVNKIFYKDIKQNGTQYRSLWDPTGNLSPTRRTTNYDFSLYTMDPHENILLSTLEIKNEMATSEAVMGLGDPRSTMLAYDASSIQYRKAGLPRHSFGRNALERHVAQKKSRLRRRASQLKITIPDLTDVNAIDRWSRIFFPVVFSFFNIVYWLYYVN
T1 sequence (P18507 40-475 partner): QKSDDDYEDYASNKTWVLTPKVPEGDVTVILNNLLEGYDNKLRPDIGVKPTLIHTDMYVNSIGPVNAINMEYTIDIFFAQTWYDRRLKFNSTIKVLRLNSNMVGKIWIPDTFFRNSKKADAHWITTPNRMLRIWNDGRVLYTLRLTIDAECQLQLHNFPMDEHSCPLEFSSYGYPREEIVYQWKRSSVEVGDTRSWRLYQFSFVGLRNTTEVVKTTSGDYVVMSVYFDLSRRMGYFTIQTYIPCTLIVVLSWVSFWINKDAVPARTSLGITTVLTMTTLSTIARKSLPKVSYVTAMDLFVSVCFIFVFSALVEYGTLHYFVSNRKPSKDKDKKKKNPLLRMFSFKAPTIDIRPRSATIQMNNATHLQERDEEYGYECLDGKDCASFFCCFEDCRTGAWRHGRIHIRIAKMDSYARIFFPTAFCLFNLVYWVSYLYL

| Compound | IC50 [1] | Emax at 10 µM [2] | Emax at 10 µM ([2]; in cremophor) |
| --- | --- | --- | --- |
| COC[C@@]1(O)CC[C@H]2[C@H](CC[C@@H]3[C@@H]2CC[C@]2(C)[C@@H](C(=O)Cn4cnnn4)CC[C@@H]32)C1 [SM-1] | 0.1 to 0.5 µM | 100 to 500% | – |
| C[C@]12CC[C@H]3[C@@H](CC[C@H]4C[C@@](O)(CF)CC[C@@H]43)[C@@H]1CC[C@@H]2C(=O)Cn1cnnn1 [SD-4] | > 0.5 µM | 100 to 500% | – |
| CCOC[C@@]1(O)CC[C@H]2[C@H](CC[C@@H]3[C@@H]2CC[C@]2(C)[C@@H](C(=O)Cn4nnnc4C)CC[C@@H]32)C1 [SO-1] | – | 100 to 500% | – |
| C[C@@H]1C[C@H]2[C@@H](CC[C@@H]3[C@@H]2CC[C@]2(C)[C@@H](C(=O)Cn4ccnn4)CC[C@@H]32)C[C@]1(C)O [SN-1] | 0.05 to 0.1 µM | 100 to 500% | – |
| C[C@@]1(O)CC[C@H]2[C@H](CC[C@@H]3[C@@H]2CC[C@]2(C)[C@@H](C(=O)Cn4cc(C#N)nn4)CC[C@@H]32)C1 [SA-20] | – | – | 100 to 500% |
| CC[C@@]1(O)CC[C@H]2[C@H](CC[C@@H]3[C@@H]2CC[C@]2(C)[C@@H](C(=O)Cn4cnnn4)CC[C@@H]32)C1 [SE-1] | – | 100 to 500% | – |
| CC[C@@]1(O)CC[C@H]2[C@@H](CC[C@@H]3[C@@H]2CC[C@]2(C)[C@@H](C(=O)Cn4ccnn4)CC[C@@H]32)C1 [SP-1] | > 0.5 µM | – | – |
| Cc1nnnn1CC(=O)[C@H]1CC[C@H]2[C@@H]3CC[C@H]4C[C@@](O)(CF)CC[C@@H]4[C@H]3CC[C@]12C [SD-2] | – | 100 to 500% | – |
| CO[C@@H]1C[C@@H]2[C@H](CC[C@]3(C)[C@@H](C(=O)Cn4ccnn4)CC[C@@H]23)[C@H]2CC[C@@](C)(O)C[C@@H]21 [SW-1] | > 0.5 µM | 100 to 500% | – |
| CC[C@@]1(O)CC[C@H]2[C@@H](CC[C@@H]3[C@@H]2CC[C@]2(C)[C@@H](C(=O)Cn4nnc(C)n4)CC[C@@H]32)C1 [SP-5] | – | 100 to 500% | – |
| CCOC[C@@]1(O)CC[C@H]2[C@@H](CC[C@@H]3[C@@H]2CC[C@]2(C)[C@@H](C(=O)Cn4nnnc4C)CC[C@@H]32)C1 [SQ-5] | > 0.5 µM | – | – |
| C[C@]12CC[C@H]3[C@@H](CC[C@@H]4C[C@@](O)(CF)CC[C@@H]43)[C@@H]1CC[C@@H]2C(=O)Cn1ccnn1 [SF-4] | 0.1 to 0.5 µM | 100 to 500% | – |
| C[C@]12CC[C@H]3[C@@H](CC[C@@H]4C[C@@](O)(CF)CC[C@@H]43)[C@@H]1CC[C@@H]2C(=O)Cn1cnnn1 [SF-1] | 0.1 to 0.5 µM | 100 to 500% | – |
| C[C@H]1C[C@H]2[C@@H](CC[C@@H]3[C@@H]2CC[C@]2(C)[C@@H](C(=O)Cn4ccnn4)CC[C@@H]32)C[C@]1(C)O [SZ-1] | 0.05 to 0.1 µM | 100 to 500% | – |
| Cc1cn(CC(=O)[C@H]2CC[C@H]3[C@@H]4CC[C@@H]5C[C@](C)(O)CC[C@@H]5[C@H]4CC[C@]23C)nn1 [SA-5] | – | > 500% | – |
| Cc1cnnn1CC(=O)[C@H]1CC[C@H]2[C@@H]3C[C@@H](F)[C@H]4C[C@](C)(O)CC[C@@H]4[C@H]3CC[C@]12C [SV-9] | – | 100 to 500% | – |
| CO[C@@H]1C[C@@H]2[C@H](CC[C@]3(C)[C@@H](C(=O)Cn4nccn4)CC[C@@H]23)[C@H]2CC[C@@](C)(O)C[C@H]21 [SL-2] | > 0.5 µM | 10 to 100% | – |
| CC[C@@]1(O)CC[C@H]2[C@H](CC[C@@H]3[C@@H]2CC[C@]2(C)[C@@H](C(=O)Cn4ccnn4)CC[C@@H]32)C1 [SE-3] | 0.1 to 0.5 µM | 100 to 500% | – |
| CCOC[C@@]1(O)CC[C@H]2[C@@H](CC[C@@H]3[C@@H]2CC[C@]2(C)[C@@H](C(=O)Cn4ccnn4)CC[C@@H]32)C1 [SQ-1] | > 0.5 µM | – | – |
| CO[C@H]1C[C@H]2[C@@H](CC[C@@H]3[C@@H]2CC[C@]2(C)[C@@H](C(=O)Cn4ccnn4)CC[C@@H]32)C[C@]1(C)O [SU-1] | 0.1 to 0.5 µM | 100 to 500% | – |
| CO[C@@H]1C[C@@H]2[C@H](CC[C@]3(C)[C@@H](C(=O)Cn4nccn4)CC[C@@H]23)[C@H]2CC[C@@](C)(O)C[C@@H]21 [SW-2] | > 0.5 µM | – | – |
| CC[C@@]1(O)CC[C@H]2[C@@H](CC[C@@H]3[C@@H]2CC[C@]2(C)[C@@H](C(=O)Cn4ncnn4)CC[C@@H]32)C1 [SP-3] | – | 100 to 500% | – |

| Compound | IC50 [1] | Emax at 10 µM [2] | Emax at 10 µM ([2]; in cremophor) |
| --- | --- | --- | --- |
| CC[C@@]1(O)CC[C@H]2[C@@H](CC[C@@H]3[C@@H]2CC[C@]2(C)[C@@H](C(=O)Cn4nccn4)CC[C@@H]32)C1 [SP-2] | 0.1 to 0.5 µM | 100 to 500% | – |
| CC[C@@]1(O)CC[C@H]2[C@H](CC[C@@H]3[C@@H]2CC[C@]2(C)[C@@H](C(=O)Cn4ncnn4)CC[C@@H]32)C1 [SE-2] | – | > 500% | – |
| CCO[C@H]1C[C@H]2[C@@H](CC[C@@H]3[C@@H]2CC[C@]2(C)[C@@H](C(=O)Cn4ccnn4)CC[C@@H]32)C[C@]1(C)O [SY-1] | 0.1 to 0.5 µM | 100 to 500% | – |
| C[C@]12CC[C@H]3[C@@H](CC[C@H]4C[C@@](O)(C(F)F)CC[C@@H]43)[C@@H]1CC[C@@H]2C(=O)Cn1ccnn1 [SS-1] | 0.1 to 0.5 µM | – | – |
| C[C@@]1(O)CC[C@H]2[C@H](CC[C@@H]3[C@@H]2CC[C@]2(C)[C@@H](C(=O)Cn4cncn4)CC[C@@H]32)C1 [SA-1] | 0.1 to 0.5 µM | 100 to 500% | – |
| Cc1nnn(CC(=O)[C@H]2CC[C@H]3[C@@H]4CC[C@@H]5C[C@@](O)(C(F)F)CC[C@@H]5[C@H]4CC[C@]23C)n1 [SG-4] | – | 100 to 500% | – |
| C[C@]12CC[C@H]3[C@@H](CC[C@H]4C[C@@](O)(CF)CC[C@@H]43)[C@@H]1CC[C@@H]2C(=O)Cn1ccnn1 [SD-1] | > 0.5 µM | – | – |
| CCOC[C@@]1(O)CC[C@H]2[C@@H](CC[C@@H]3[C@@H]2CC[C@]2(C)[C@@H](C(=O)Cn4cnnn4)CC[C@@H]32)C1 [SQ-4] | – | 100 to 500% | – |
| COC[C@@]1(O)CC[C@H]2[C@H](CC[C@@H]3[C@@H]2CC[C@]2(C)[C@@H](C(=O)Cn4nnnc4C)CC[C@@H]32)C1 [SM-3] | – | > 500% | – |
| Cc1cn(CC(=O)[C@H]2CC[C@H]3[C@@H]4C[C@@H](F)[C@H]5C[C@](C)(O)CC[C@@H]5[C@H]4CC[C@]23C)nn1 [SV-8] | – | > 500% | – |
| C[C@@]1(O)CC[C@@H]2[C@H]3CC[C@]4(C)[C@@H](C(=O)Cn5ccnn5)CC[C@H]4[C@@H]3C[C@@H](F)[C@@H]2C1 [SH-1] | > 0.5 µM | – | – |
| Cc1cnn(CC(=O)[C@H]2CC[C@H]3[C@@H]4C[C@@H](F)[C@H]5C[C@](C)(O)CC[C@@H]5[C@H]4CC[C@]23C)n1 [SV-7] | – | 100 to 500% | – |
| CCOC[C@@]1(O)CC[C@H]2[C@@H](CC[C@@H]3[C@@H]2CC[C@]2(C)[C@@H](C(=O)Cn4nccn4)CC[C@@H]32)C1 [SQ-2] | – | 100 to 500% | – |
| CCOC[C@@]1(O)CC[C@H]2[C@@H](CC[C@@H]3[C@@H]2CC[C@]2(C)[C@@H](C(=O)Cn4nnc(C)n4)CC[C@@H]32)C1 [SQ-6] | – | 100 to 500% | – |
| C[C@@]1(O)CC[C@H]2[C@H](CC[C@@H]3[C@@H]2CC[C@]2(C)[C@@H](C(=O)Cn4nnc(C(F)(F)F)n4)CC[C@@H]32)C1 [SA-8] | – | 100 to 500% | – |
| CCOC[C@@]1(O)CC[C@H]2[C@@H](CC[C@@H]3[C@@H]2CC[C@]2(C)[C@@H](C(=O)Cn4ncnn4)CC[C@@H]32)C1 [SQ-3] | – | > 500% | – |
| CCOC[C@@]1(O)CC[C@H]2[C@H](CC[C@@H]3[C@@H]2CC[C@]2(C)[C@@H](C(=O)Cn4nnc(C)n4)CC[C@@H]32)C1 [SO-2] | > 0.5 µM | – | – |
| Cc1nnn(CC(=O)[C@H]2CC[C@H]3[C@@H]4CC[C@H]5C[C@@](O)(CF)CC[C@@H]5[C@H]4CC[C@]23C)n1 [SD-3] | – | 100 to 500% | – |
| Cc1nnnn1CC(=O)[C@H]1CC[C@H]2[C@@H]3CC[C@@H]4C[C@@](O)(C(F)F)CC[C@@H]4[C@H]3CC[C@]12C [SG-3] | – | 100 to 500% | – |
| COC[C@@]1(O)CC[C@H]2[C@H](CC[C@@H]3[C@@H]2CC[C@]2(C)[C@@H](C(=O)Cn4nnc(C)n4)CC[C@@H]32)C1 [SM-4] | – | > 500% | – |
| CC[C@@]1(O)CC[C@H]2[C@H](CC[C@@H]3[C@@H]2CC[C@]2(C)[C@@H](C(=O)Cn4nnnc4C)CC[C@@H]32)C1 [SE-5] | > 0.5 µM | – | – |
